# Experimental data from US8648101B2, “Nematicidal agent composition and method of using the same” (Nihon Nohyaku Co., Ltd., priority 2007, dated 2014).
# How the values were obtained:
# [1] = tested on: southern root-knot nematode (Meloidogyne incognita); assay: Nematocidal test on the southern root-knot nematode, pot-grown melon seedlings; assay type: in vivo; design: key: A: no root knots.; B: root knots are present but their number is definitely smaller than that for untreated plot.; C: root knots are present in an equivalent number to or a larger number than that for untreated plot; settings: 30 ppm emulsion dilution, 1 ml injected at foot of melon seedlings; 8 days after inoculation
# Experimental: Nematocidal Test on the Southern Root-Knot Nematode (Meloidogyne incognita)
# An emulsion comprising each compound listed in Table 1 as an active ingredient was prepared as directed in Preparation Example 1, and diluted to obtain active ingredient concentrations of 300 ppm and 30 ppm. Each of these dilutions (1 ml) was applied to the foots of pot-grown melon seedlings by injection; 1 day after application of the dilution, an aqueous suspension of southern root-knot nematodes (about 500 nematodes/ml) was inoculated (soil injection), to a treated plot and an untreated plot and the pots were placed in a 25° C. greenhouse. Eight days after the inoculation, the roots were washed with water and examined for the number of root knots, and the effects were determined according to the following rating criteria.
# • A: no root knots. • B: root knots are present but their number is definitely smaller than that for untreated plot. • C: root knots are present in an equivalent number to or a larger number than that for untreated plot.
# [2] = tested on: soybean cyst nematode (Heterodera grycines); assay: Nematocidal test on the soybean cyst nematode, treated soil with soybean; assay type: in vivo; design: key: A: no cysts.; B: cysts are present but their number is definitely smaller than that for untreated plot.; C: cysts are present in an equivalent number to or a larger number than that for untreated plot; settings: 7.5 mg wettable powder (1.5 mg active ingredient per kg soil); 40 days after seeding
# Experimental: Nematocidal Test on the Soybean Cyst Nematode (Heterodera grycines)
# A wettable powder comprising each compound listed in Table 1 as an active ingredient was prepared as directed in Preparation Example 4, and 75 mg and 7.5 mg were weighed out so that the active ingredient content would be 15 mg and 1.5 mg per kg soil; these agents were mixed in soil (1000 g) contaminated with soybean cyst nematodes in a plastic bag. The treated soil was filled in pots, soybean seeds were sown, and the pots were placed in a glass greenhouse. Forty days after the seeding, the soil on the roots was put down, the number of cysts was examined, and the effect was determined according to the rating criteria shown below.
# • A: no cysts. • B: cysts are present but their number is definitely smaller than that for untreated plot. • C: cysts are present in an equivalent number to or a larger number than that for untreated plot.
structure (smiles),measurement,setting,value
"O=C(NCCc1ncc(C(F)(F)F)cc1Cl)c1ccccc1C(F)(F)F [Compound 7, N-[2-(3-chloro-5-trifluoromethylpyridin-2-yl)ethyl]-2-trifluoromethylbenzamide]",rating (number of root knots),[1],A
same,rating (number of cysts),[2],A
